The record followed here is EP2439188B1, “p-Menthane-3,8-diol derivatives and insect repellents comprising them” (priority 2010, dated 2012).

Like-named read-outs stand apart in the source and are kept apart here.

A short description of one series: Solubility in water. Type of series: physicochemical. An excerpt: Tabelle 1 zeigt die Wasserlöslichkeit der erfindungsgemäßen Verbindung PMD-S (para-Menthane-3,8-diol Succinat) im Vergleich zu üblichen in Insektenschutzmitteln eingesetzten Wirkstoffen. Tabelle 1
In the next series the test system is HeLa-Zellen. The series can be described thus: cells. In kind it is cell-based. The following applies: Homo sapiens, concentration at which 50 % of the cells die, relative to untreated control cells. An excerpt:
(§1) Hierzu wurden Zytotoxizitätsstudien an HeLa-Zellen und an Keratinozyten (SK-Mel-28) durchgeführt. Erstere Tests gelten als gute Alternative zu in vivo Draize Augenreizungstests, während letztere ein gutes Modell für die Hautkompatibilität sind.

Series [1] deals with Keratinozyten (SK-Mel-28). The series can be described thus: cells. Type of series: cell-based. To be noted: Homo sapiens, SK-MEL-28, SK-Mel-28; concentration at which 50 % of the cells die, relative to untreated control cells; read-out: Keratinocyten Zellen IC50.
Description: as §1

`CC[C@@H](C)OC(=O)N1CCCC[C@@H]1CCO` (racemic) [KBR 3023, (RS)-sec-butyl-(RS)-2-(2hydroxyethyl) piperidine-1-carboxylat]: in the series “Solubility in water” (bei 20°C), the “Löslichkeit in Wasser” value came to 8.2 g/L bei 20 °C.

Take `CCN(CC)C(=O)c1cccc(C)c1` [DEET, N,N-Diethyl-m-methylbenzamid]: the “Löslichkeit in Wasser” value in “Solubility in water” was determined as 1 g/L bei 25 °C. In addition, the IC50 (in general, the concentration needed to halve the response being measured) in the series on HeLa-Zellen was 12.4 ± 1.89 µM; in series [1], 8.1 ± 3.41 µM.

As for `CCCCN(CCC(=O)OCC)C(C)=O` [IR 3535, Ethyl-3-[(acetyl)(butyl)amino]propanoat], the “Löslichkeit in Wasser” value in “Solubility in water” came out at 70 g/L bei 20 °C. Besides, the values for the IC50 (in the series on HeLa-Zellen; in series [1]) were 12.5 ± 1.17 µM and 17.5 ± 2.76 µM, respectively.

On to `CC1CCC(C(C)(C)O)C(O)C1` (stereo not drawn) [PMD, para-Menthan-3,8-diol], for which the “Löslichkeit in Wasser” value in “Solubility in water” (bei 25°C) was 0.29 g/L bei 25 °C. Further, the IC50 in series [1] was determined as 14.2 ± 5.23 µM.
